The source of these data is article PMC8041284, “Tunable Methacrylamides for Covalent Ligand Directed Release Chemistry” (Journal of the American Chemical Society, 2021).

This test concerns the target BTK (Homo sapiens, UniProt Q06187). Description: biochemical.
Where [1] appears, read: read-out: BTK inhibition (%), 0.75 uM BTK, […] probe 3l, 15 min preincubation.

Where two headings read alike, the source gives them in different places.

Sequence of BTK (Q06187 402-655 limits assumed): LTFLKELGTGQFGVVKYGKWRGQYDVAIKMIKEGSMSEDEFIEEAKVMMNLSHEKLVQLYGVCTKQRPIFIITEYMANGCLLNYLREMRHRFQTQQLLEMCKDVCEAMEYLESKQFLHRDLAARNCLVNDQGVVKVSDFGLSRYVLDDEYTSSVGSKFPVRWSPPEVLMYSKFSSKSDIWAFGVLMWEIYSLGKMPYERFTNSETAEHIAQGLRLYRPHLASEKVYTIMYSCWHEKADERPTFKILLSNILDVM

The inhibition is the relative decrease from the control value, in per cent. `C=C1C[C@@]23CC[C@H]4[C@@](C)(CCC[C@@]4(C)C(=O)O)[C@@H]2CC[C@]1(O[C@@H]1O[C@H](CO)[C@@H](O)[C@H](O)[C@H]1O[C@@H]1O[C@H](CO)[C@@H](O)[C@H](O)[C@H]1O)C3` [PCM-0216480]: the inhibition at 10 µM under setting [1] was -3.9%. The same measure, in the same setting: in the case of `C/C1=C\CC[C@]23O[C@H]2[C@@H](OC3=O)c2c(C)coc2C1` [PCM-0216481] it was -16.2%; in that of `O=c1cc(-c2ccc(O[C@@H]3O[C@H](CO)[C@@H](O)[C@H](O)[C@H]3O)cc2)oc2cc(O)c([C@@H]3O[C@H](CO)[C@@H](O)[C@H](O)[C@H]3O[C@@H]3OC[C@H](O)[C@H](O)[C@H]3O)c(O)c12` [PCM-0216482], -22.4%. On the same count and under the same terms, in the case of `COc1cc2c(c(O)c1OC)-c1c(cc(OC)c(OC)c1OC)C[C@@H](C)[C@@H](C)C2` [PCM-0216483] it was 23.9%; in that of `CC(/C=C/C=C(\C)C(=O)O[C@@H]1O[C@H](CO)[C@@H](O)[C@H](O)[C@H]1O)=C\C=C\C=C(C)\C=C\C=C(/C)C(=O)O[C@@H]1O[C@H](CO[C@@H]2O[C@H](CO)[C@@H](O)[C@H](O)[C@H]2O)[C@@H](O)[C@H](O)[C@H]1O` [PCM-0216484], 16.2%. Still for that read-out and setting: for `O=c1cc(-c2ccc(O)cc2)oc2c([C@@H]3OC[C@H](O)[C@H](O)[C@H]3O)c(O)c([C@@H]3O[C@H](CO)[C@@H](O)[C@H](O)[C@H]3O)c(O)c12` [PCM-0216486] the value was -13.9%.

Take `COc1ccc([C@@H]2CC(=O)c3c(O)cc(O[C@@H]4O[C@H](CO[C@@H]5O[C@@H](C)[C@H](O)[C@@H](O)[C@H]5O)[C@@H](O)[C@H](O)[C@H]4O)cc3O2)cc1` [PCM-0216487]: under setting [1], the inhibition at 10 µM is -3.1%. The same measure, in the same setting: in the case of `C=C(C)[C@@H]1CC[C@@]2(C)CCC(=O)C(C)=C2C1` [PCM-0216488] it was -11.6%; in that of `COc1ccc2cc3[n+](cc2c1O)CCc1cc2c(cc1-3)OCO2` [PCM-0216489], 97.3%; in that of `CC1(C)CC[C@]2(C(=O)O)CCC3=C(CC[C@@H]4[C@@]5(C)C[C@H](O)[C@H](O)[C@@](C)(C(=O)O)[C@@H]5CC[C@@]34C)[C@@H]2C1` [PCM-0216490], 10.8%. Turning to `C=C[C@H]1CN2CC[C@@]3(C(=O)Nc4ccccc43)[C@@H]2C[C@@H]1/C(=C\OC)C(=O)OC` [PCM-0216491], the inhibition at 10 µM under setting [1] is -7.7%. Same read-out and setting: for `COc1cc2c(=O)c3c(O)c([C@@H]4O[C@H](CO[C@@H]5OC[C@](O)(CO)[C@H]5O)[C@@H](O)[C@H](O)[C@H]4O)c(O)cc3oc2cc1O` [PCM-0216492] the value was -13.1%. On the same count and under the same terms, in the case of `C[C@@H]1O[C@@H](OC[C@H]2O[C@@H](Oc3cc(O)c4c(c3)O[C@H](c3ccc(O)cc3)CC4=O)[C@H](O)[C@@H](O)[C@@H]2O)[C@H](O)[C@H](O)[C@H]1O` [PCM-0216493] it was 10.8%. Same read-out and setting: for `OCC1(O)COc2cc(O)ccc2-c2cc(O)c(O)cc2C1` (stereo not shown) [PCM-0216494] the value was 39.4%. For the molecule `O=C(/C=C/c1ccc(O)cc1)OC[C@H]1O[C@@H](Oc2c(-c3ccc(O)cc3)oc3cc(O)cc(O)c3c2=O)[C@H](O)[C@@H](O)[C@@H]1O` [PCM-0216495], the inhibition at 10 µM under setting [1] was determined as 15.3%.

In the case of `COc1ccc(C[C@@H]2c3cc(Oc4cc(C[C@@H]5c6cc(O)c(OC)cc6CCN5C)ccc4O)c(OC)cc3CCN2C)cc1` [PCM-0216496], under setting [1], the inhibition at 10 µM turned out to be 16.2%. Still for that read-out and setting: in the case of `O=c1cc(-c2ccc(O)c(O)c2)oc2cc(O)c([C@@H]3O[C@H](CO)[C@@H](O)[C@H](O)[C@H]3O)c(O)c12` [PCM-0216497] it was -4.6%; in that of `COc1cc(C2Oc3ccc([C@H]4Oc5cc(O)cc(O)c5C(=O)[C@@H]4O)cc3OC2CO)ccc1O` (stereo partly shown) [PCM-0216498], 21.6%; in that of `CC1(C)O[C@H]1COc1c2ccoc2cc2oc(=O)ccc12` [PCM-0216499], 0.8%.

Regarding `COc1cc2c(cc1OC)[C@H]1[C@@H](C)c3ccc(OC)c(OC)c3CN1CC2` [PCM-0216500], under setting [1], the inhibition at 10 µM was -27%.

Regarding `COc1ccc2[nH]c(=O)oc2c1` [PCM-0216501], under setting [1], the inhibition at 10 µM was -4.6%. Same read-out and setting: in the case of `COc1cc2oc(=O)ccc2cc1O` [PCM-0216502] it was -10%; in that of `CC(=O)O[C@H](CC=C(C)C)C1=CC(=O)c2c(O)ccc(O)c2C1=O` [PCM-0216503], 35.7%; in that of `O=C(/C=C/c1ccc(O)c2c1[C@H](C(=O)O)[C@@H](c1ccc(O)c(O)c1)O2)O[C@H](Cc1ccc(O)c(O)c1)C(=O)O` [PCM-0216504], 8.5%.

In the case of `CC(C)(O[C@@H]1O[C@H](CO)[C@@H](O)[C@H](O)[C@H]1O)[C@H]1Cc2cc3ccc(=O)oc3cc2O1` [PCM-0216505], the inhibition at 10 µM under setting [1] was -1.5%. The same measure, in the same setting: for `CCCCC1OC(=O)c2ccccc21` (stereo not shown) [PCM-0216506] the value was 6.9%; for `CC(C)=CC(=O)O[C@H]1Cc2cc3ccc(=O)oc3cc2OC1(C)C` [PCM-0216507], 16.2%; for `CC(=O)O[C@H]1C(=O)[C@]2(C)[C@H](O)C[C@H]3OC[C@@]3(OC(C)=O)[C@H]2[C@H](OC(=O)c2ccccc2)[C@]2(O)C[C@H](OC(=O)[C@H](O)[C@@H](NC(=O)c3ccccc3)c3ccccc3)C(C)=C1C2(C)C` [PCM-0216508], 16.2%. On the same count and under the same terms, in the case of `CC(C)=CCC[C@](C)(O[C@@H]1O[C@H](CO[C@@H]2O[C@@H](CO)[C@H](O)[C@H]2O)[C@@H](O)[C@H](O)[C@H]1O)[C@H]1CC[C@]2(C)[C@@H]1[C@H](O)C[C@@H]1[C@@]3(C)CC[C@H](O[C@@H]4O[C@H](CO)[C@@H](O)[C@H](O)[C@H]4O[C@@H]4O[C@H](CO)[C@@H](O)[C@H](O)[C@H]4O)C(C)(C)[C@@H]3CC[C@]12C` [PCM-0216509] it was -10%; in that of `COc1ccc(-c2oc3c(CC=C(C)C)c(O[C@@H]4C[C@H](CO)[C@@H](O)[C@H](O)[C@H]4O)cc(O)c3c(=O)c2O[C@@H]2O[C@@H](C)[C@H](O)[C@@H](O)[C@H]2O[C@@H]2O[C@H](CO)[C@@H](O)[C@H](O)[C@H]2O)cc1` [PCM-0216510], -15.4%.

With `COc1ccc(-c2oc3c(CC=C(C)C)c(O[C@@H]4O[C@H](CO)[C@@H](O)[C@H](O)[C@H]4O)cc(O)c3c(=O)c2O[C@@H]2O[C@@H](C)[C@H](O)[C@@H](O)[C@H]2O[C@@H]2OC[C@@H](O)[C@H](O)[C@H]2O)cc1` [PCM-0216511], the inhibition at 10 µM under setting [1] is -8.5%. Same read-out and setting: in the case of `COc1ccc(-c2oc3c(CC=C(C)C)c(O[C@@H]4O[C@H](CO)[C@@H](O)[C@H](O)[C@H]4O)cc(O)c3c(=O)c2O[C@@H]2O[C@@H](C)[C@H](O)[C@@H](O)[C@H]2O[C@@H]2O[C@@H](C)[C@H](O)[C@@H](O)[C@H]2O)cc1` [PCM-0216512] it was -13.1%; in that of `COc1c(C)c(O)cc2[o+]c(-c3ccccc3)ccc12` [PCM-0216513], 38.6%. Still for that read-out and setting: for `C=C(C)[C@@H]1CC[C@]2(C(=O)O)CC[C@]3(C)[C@H](CC[C@@H]4[C@@]5(C)CC[C@H](O[C@@H]6OC[C@H](O)[C@H](O)[C@H]6O[C@@H]6O[C@@H](C)[C@H](O)[C@@H](O)[C@H]6O)[C@@](C)(CO)[C@@H]5CC[C@]43C)[C@@H]12` [PCM-0216514] the value was 34%. Take `C=C[C@@]12CN(C)[C@H]3C[C@]14C(=Nc1ccccc14)[C@@H]1C[C@@H]2[C@@H]3CO1` [PCM-0216515]: where the note is “read-out: BTK inhibition (%)”, the inhibition at 10 µM was -16.2%. `C[C@@H](CC[C@@]1(O)O[C@H]2C[C@H]3[C@@H]4CC[C@@H]5C[C@@H](O[C@@H]6O[C@H](CO)[C@H](O)[C@H](O)[C@H]6O[C@@H]6O[C@H](CO)[C@@H](O)[C@H](O)[C@H]6O)CC[C@]5(C)[C@H]4CC[C@]3(C)[C@H]2[C@@H]1C)CO[C@@H]1O[C@H](CO)[C@@H](O)[C@H](O)[C@H]1O` [PCM-0216516]: the inhibition at 10 µM under setting [1] was -3.9%. Turning to `Nc1[nH]c(=O)nc2c1ncn2[C@@H]1O[C@H](CO)[C@@H](O)[C@H]1O` [PCM-0216517], the inhibition at 10 µM under setting [1] was -11.6%. On the same count and under the same terms, in the case of `C[C@H](C[C@H](O)[C@H]1OC1(C)C)C1=C2C[C@H](O)[C@H]3[C@@]4(C)CCC(=O)C(C)(C)[C@@H]4CC[C@]3(C)[C@@]2(C)CC1` [PCM-0216518] it was -24.7%; in that of `C[C@H](C[C@H](O)[C@@H](O)C(C)(C)O)C1=C2C[C@H](O)[C@H]3[C@@]4(C)CCC(=O)C(C)(C)[C@@H]4CC[C@]3(C)[C@@]2(C)CC1` [PCM-0216519], -29.3%. As to `C=C1CC[C@H]2[C@@H](/C=C(\C)C(=O)[C@@]3(OC(C)=O)C[C@H](C)[C@H](OC(=O)c4ccccc4)[C@@H]3[C@H]1OC(C)=O)C2(C)C` [PCM-0216520], the inhibition at 10 µM (read-out: BTK inhibition (%)) was -20.1%. Turning to `COc1cc(/C=C/C(=O)CC(=O)/C=C/c2ccc(O)cc2)ccc1O` [PCM-0216521], the inhibition at 10 µM under setting [1] stood at 110%. As for `C[C@@H]1CCCC2=CC(=O)[C@@H]3[C@@H](C3(C)C)[C@]21C` [PCM-0216523], the inhibition at 10 µM under setting [1] was -8.5%. Same read-out and setting: for `CC(=O)Cc1cc(=O)c2c(C)cc(O)c([C@@H]3O[C@H](CO)[C@@H](O)[C@H](O)[C@H]3O)c2o1` [PCM-0216524] the value was 3.9%. Same read-out and setting: for `COc1ccc(-c2cc(=O)c3c(O)cc(O[C@@H]4O[C@H](CO[C@@H]5O[C@@H](C)[C@H](O)[C@@H](O)[C@H]5O)[C@@H](O)[C@H](O)[C@H]4O)cc3o2)cc1` [PCM-0216526] the value was 14.7%. On the same count and under the same terms, in the case of `O=C(/C=C/c1ccc(O[C@@H]2O[C@H](CO)[C@@H](O)[C@H](O)[C@H]2O)cc1)c1ccc(O)cc1O` [PCM-0216527] it was 19.3%; in that of `COc1cc2c(cc1OC)[C@@H](Cc1ccc(Oc3cc(C[C@@H]4c5cc(OC)c(OC)cc5CCN4C)ccc3O)cc1)N(C)CC2` [PCM-0216529], -9.3%. Consider `C[C@@]1(CO)C[C@@H](O)C[C@@]2(C)[C@@H]3CC[C@](C)([C@@H](O)CO)C=C3CC[C@H]12` [PCM-0216530], for which, under setting [1], the inhibition at 10 µM is 20.8%.

Take `CC1(C)C=Cc2cc(-c3coc4cc(O)ccc4c3=O)ccc2O1` [PCM-0216531]: the inhibition at 10 µM under setting [1] is 28.6%. Same read-out and setting: for `CC(C)=CCC[C@](C)(O[C@@H]1O[C@H](CO)[C@@H](O)[C@H](O)[C@H]1O)[C@H]1CC[C@]2(C)[C@@H]1[C@H](O)C[C@@H]1[C@@]3(C)CC[C@H](O)C(C)(C)[C@@H]3[C@@H](O)C[C@]12C` [PCM-0216532] the value was -11.6%.
